Measurements published in patent publication US6512006B1, “HIV protease inhibitors” (Warner-Lambert Company, priority 1999, dated 2003).

Columns and labels:
[1] = target: HIV protease enzyme (Human immunodeficiency virus type 1 group M subtype B, UniProt P04585); experiment: IC50s measured in vitro against HIV protease enzyme at pH 4.7 and 6.2
[2] = target: T1, Recombinant HIV-1 protease (Human immunodeficiency virus type 1 group M subtype B, UniProt P04585); experiment: HIV Protease Assay (Ki); assay type: biochemical; conditions: Inhibition of HIV Protease Ki, pH 6.2, 37° C., 40 μM substrate III
T1 construct: Recombinant HIV-1 protease (>96% purity); purchased Bachem Bioscience, Inc. (King of Prussia, Pa.)
Procedure: Recombinant HIV-1 protease (>96% purity) and HIV protease substrate III (the undecapeptide H-His-Lys-Ala-Arg-Val-Leu-Nph-Glu-Ala-Nle-Ser-NH2, 97% purity) were purchased from Bachem Bioscience, Inc. (King of Prussia, Pa.).
The methods employed follow the procedures of Tummino, et al., Archives of Biochemistry and Biophysics, 1995;316:523). […] (total volume, […]). […] The final inhibitor concentrations used were 0 (0.1, 0.2, in some experiments), 0.5, 1, 2, 5, 10, 20, 50, and 100 μM. The solution was mixed, incubated for 5 minutes and the reaction quenched by addition of trifluoracetic acid, 2% final. The (leu-p-nitro-phe) bond of the substrate is cleaved by the enzyme and substrate and products separated by reverse-phase HPLC (high pressure liquid chromatography). Absorbance was measured at 220 nm, peak areas determined, and percentage conversion to product used to calculate percentage control (=[% conversion (+inhibitor)/% conversion (−inhibitor)]×100).
Ki means inhibitory constant; it approximately the equilibrium binding constant for the binding of the inhibitor to the free enzyme.

[3] = tested on: HIV infected lymphocyte derived CEM cells; experiment: Cellular Infection Assay, XTT cytopathic procedure in CEM cells (antiviral efficacy); assay type: cell-based; conditions: Human immunodeficiency virus 1, CCRF-CEM, read-out: Antiviral Efficacy EC50, CEM cells, 50% protection against HIV cytopathic effects
Procedure: Compounds were tested in lymphocyte derived CEM cells using the XTT cytopathic procedures and were performed at Southern Research Institute (Buckheit, et al., Antiviral Res., 1993;21:247; see also Weislow, et al., J. Nat. Cancer Inst., 1989;81:577). Compound concentrations were 0.32, 1, 3.2, 10, 32, and 100 μM. The EC50 represents the concentration of agent, which reduces HIV cytopathic effects 50% relative to untreated control. Cellular toxicity of the agents are estimated from the TC50 which represents the concentration of the agent which inhibits 50% of the viability of uninfected cells.
EC50 indicates the concentration of the drug which provide 50% protection against HIV.

[4] = Cellular toxicity in uninfected CEM cells (XTT); assay type: cell-based; conditions: human, uninfected CEM cells (lymphocyte derived), cytotoxicity in 50% of uninfected CEM cells; read-out: TC50 (the source's name)
Procedure: Compound concentrations were 0.32, 1, 3.2, 10, 32, and 100 μM.

SMILES | melting point [°C] | also measured
CCCN(C1=C(O)CC(CCc2ccc(O)cc2)(C(C)C)OC1=O)c1cccc(NS(=O)(=O)c2cccs2)c1 (stereo not drawn) | 85 to 87 | –
CCCN(C1=C(O)CC(CCc2ccc(O)cc2)(C2CCCC2)OC1=O)c1cccc(NS(=O)(=O)c2ccc(C(F)(F)F)cn2)c1 (stereo not drawn) | 104 to 106 | –
CCCCN(C1=C(O)CC(CCc2cccc(O)c2)(C2CCCC2)OC1=O)c1ccccc1 (stereo not drawn) | 64 to 66 | –
CCCN(C1=C(O)CC(CCc2ccc(N)cc2)(C(C)C)OC1=O)c1cccc(NS(=O)(=O)c2ccc(C(F)(F)F)cn2)c1 (stereo not drawn) | 170 to 172 | –
CC(C)C1(CCc2ccc(O)cc2)CC(O)=C(N(c2ccccc2)c2ccccc2)C(=O)O1 (stereo not drawn) | 83 to 85 | –
CCCN(C1=C(O)CC(CCc2ccc(O)cc2)(C(C)C)OC1=O)c1cccc(C(=O)OC)c1 (stereo not drawn) | 96 to 98 | –
CCCN(C1=C(O)CC(CCc2ccc(O)cc2)(C(C)C)OC1=O)c1cc(Cl)cc(Cl)c1 (stereo not drawn) | 86 to 88 | –
CCCN(C1=C(O)CC(CCc2ccccc2)(C(C)C)OC1=O)c1ccccc1 (stereo not drawn) | 160 to 162 | –
CCCN(C1=C(O)CC(CCc2ccsc2)(C(C)C)OC1=O)c1ccccc1 (stereo not drawn) | 53 to 55 | –
CCCN(C1=C(O)CC(CCc2ccc(O)cc2)(C2CCCC2)OC1=O)c1ccccc1 (stereo not drawn) | 95 | –
CCN(C1=C(O)CC(CCc2ccc(O)cc2)(C(C)C)OC1=O)c1ccccc1 (stereo not drawn) | 63 to 65 | –
O=C1OC(CCc2cccc(O)c2)(C2CCCC2)CC(O)=C1N(c1ccccc1)c1ccccc1 (stereo not drawn) | 90 to 92 | –
CC(C)C1(CCc2ccc(O)cc2)CC(O)=C(N(c2ccccc2)C2CCCCC2)C(=O)O1 (stereo not drawn) | 104 to 106 | –
CC(C)C1(CCc2ccc(O)cc2)CC(O)=C(N(c2ccccc2)C2CCCC2)C(=O)O1 (stereo not drawn) | 83 to 85 | –
COc1ccc(N(C2=C(O)CC(CCc3ccc(O)cc3)(C(C)C)OC2=O)c2ccccc2)cc1 (stereo not drawn) | 95 to 96 | –
CCCN(C1=C(O)CC(C)(CCc2ccc(O)cc2)OC1=O)c1ccccc1 (stereo not drawn) | 179 to 181 | –
CC(C)C1(CCc2ccc(O)cc2)CC(O)=C(N(c2ccccc2)c2cccc(O)c2)C(=O)O1 (stereo not drawn) | 95 to 97 | –
CCCCC1(CCc2ccc(O)cc2)CC(O)=C(N(CCC)c2ccccc2)C(=O)O1 (stereo not drawn) | 58 to 60 | –
CCCN(C1=C(O)CC(CCc2ccc(O)cc2)(C2CC2)OC1=O)c1ccccc1 (stereo not drawn) | 74 to 75 | –
CC(C)N(C1=C(O)CC(CCc2ccc(O)cc2)(C(C)C)OC1=O)c1ccccc1 (stereo not drawn) | 75 to 77 | –
CC(C)C1(CCc2ccc(O)cc2)CC(O)=C(N(CCO)c2ccccc2)C(=O)O1 (stereo not drawn) | 85 to 86 | –
CCCN(C1=C(O)CC(CCc2ccc3c(c2)OCO3)(C(C)C)OC1=O)c1ccccc1 (stereo not drawn) | 93 to 95 | –

SMILES | melting point [°C] | also measured
CC(C)CCN(C1=C(O)CC(CCc2ccc(O)cc2)(C(C)C)OC1=O)c1ccccc1 (stereo not drawn) | 70 to 72 | –
CC(C)C1(CCc2ccc(O)cc2)CC(O)=C(N(c2ccccc2)C2CC2)C(=O)O1 (stereo not drawn) | 102 to 104 | –
CCCN(C1=C(O)CC(CCc2ccc(O)cc2)(C(C)C)OC1=O)c1cccc2c(O)cccc12 (stereo not drawn) | 93 to 96 | –
CCN(C1=C(O)CC(CCc2ccc(O)cc2)(C(C)C)OC1=O)c1ccc2ccccc2c1 (stereo not drawn) | 97 to 99 | –
CCN(C1=C(O)CC(CCc2ccc(O)cc2)(C(C)C)OC1=O)c1cccc2ccccc12 (stereo not drawn) | 86 to 88 | –
CC(C)C1(CCc2ccc(O)cc2)CC(O)=C(N(Cc2ccccc2)c2ccccc2)C(=O)O1 (stereo not drawn) | 75 to 77 | –
Cc1ccc(C(C)(C)C)c(Sc2c(O)cc(-c3ccccc3)oc2=O)c1 | – | IC50 ([1]; pH (4.7)): 28 nM; IC50 ([1]; pH (6.2)): 280 nM
Cc1ccc(C(C)(C)C)c(SC2=C(O)CC(CCc3ccccc3)(c3ccccc3)OC2=O)c1 (stereo not drawn) | – | IC50 ([1]; pH (4.7)): 10 nM; IC50 ([1]; pH (6.2)): 35 nM
CCCCN(C1=C(O)CC(CCc2ccc(O)cc2)(C(C)C)OC1=O)c1ccccc1 (stereo not drawn) [15] | 69 to 71 | –
CCCN(C1=C(O)CC(CCc2ccc(O)cc2)(C(C)C)OC1=O)c1cccc(CO)c1 (stereo not drawn) [19] | 61 to 63 | –
CCCN(C1=C(O)CC(CCc2ccc(O)cc2)(C(C)C)OC1=O)c1cccc(CO)c1 (stereo not drawn) [32] | 71 to 73 | –
CCCN(C1=C(O)CC(CCc2ccccc2)(C(C)C)OC1=O)c1cccc(NS(=O)(=O)c2ccc(C(F)(F)F)cn2)c1 (stereo not drawn) [Example 1, 5-Trifluoromethyl-pyridine-2-sulfonic acid {3-[(4-hydroxy-6-isopropyl-2-oxo-6-phenethyl-5,6-dihydro-2H-pyran-3-yl)-propyl-amino]-phenyl}-amide] | – | Ki [2]: 0.029 nM; EC50 [3]: 700 nM; CC50 [4]: 63000 nM
CCN(C1=C(O)CC(CCc2ccccc2)(C(C)C)OC1=O)c1cccc(NS(=O)(=O)c2ccc(C(F)(F)F)cn2)c1 (stereo not drawn) [Example 3, 5-Trifluoromethyl-pyridine-2-sulfonic acid {3-[ethyl-(4-hydroxy-6-isopropyl-2-oxo-6-phenethyl-5,6-dihydro-2H-pyran-3-yl)-amino]-phenyl}-amide] | – | Ki [2]: 0.96 nM; EC50 [3]: 1100 nM; CC50 [4]: 66000 nM
CCCN(C1=C(O)CC(CCc2ccc(O)cc2)(C(C)C)OC1=O)c1cccc(NS(=O)(=O)c2ccc(C(F)(F)F)cn2)c1 (stereo not drawn) [Example 4, 5-Trifluoromethyl-pyridine-2-sulfonic acid [3-({4-hydroxy-6-[2-(4-hydroxy-phenyl)-ethyl]-6-isopropyl-2-oxo-5,6-dihydro-2H-pyran-3-yl}-propyl-amino)-phenyl]-amide] | – | Ki [2]: 0.01 nM; EC50 [3]: 1100 nM; CC50 [4]: 84000 nM
CCCC1(CCc2ccc(O)cc2)CC(O)=C(N(CC)c2cccc(NS(=O)(=O)c3ccc(C(F)(F)F)cn3)c2)C(=O)O1 (stereo not drawn) [Example 5, 5-Trifluoromethyl-pyridine-2-sulfonic acid [3-(ethyl-{4-hydroxy-6-[2-(4-hydroxy-phenyl)-ethyl]-2-oxo-6-propyl-5,6-dihydro-2H-pyran-3-yl}-amino)-phenyl]-amide] | – | Ki [2]: 0.17 nM; EC50 [3]: 1300 nM; CC50 [4]: 113000 nM
CCN(C1=C(O)CC(CCc2ccc(O)cc2)(C(C)C)OC1=O)c1cccc(NS(=O)(=O)c2ccc(C(F)(F)F)cn2)c1 (stereo not drawn) [Example 6, 5-Trifluoromethyl-pyridine-2-sulfonic acid [3-(ethyl-{4-hydroxy-6-[2-(4-hydroxy-phenyl)-ethyl]-6-isopropyl-2-oxo-5,6-dihydro-2H-pyran-3-yl}-amino)-phenyl]-amide] | – | Ki [2]: 0.44 nM; EC50 [3]: 1300 nM; CC50 [4]: 133000 nM
CCCN(C1=C(O)CC(CCc2ccc(O)cc2)(C(C)C)OC1=O)c1ccccc1 (stereo not drawn) [Example 7, 4-Hydroxy-6-[2-(4-hydroxy-phenyl)-ethyl]-6-isopropyl-3-(phenyl-propyl-amino)-5,6-dihydro-pyran-2-one] | 171 to 173 | Ki [2]: 0.13 nM; EC50 [3]: 1300 nM; CC50 [4]: 200000 nM
CCCN(C1=C(O)CC(CCc2cccc(O)c2)(C2CCCC2)OC1=O)c1ccccc1 (stereo not drawn) [Example 8, 6-Cyclopentyl-4-hydroxy-6-[2-(3-hydroxy-phenyl)-ethyl]-3-(phenyl-propyl-amino)-5,6-dihydro-pyran-2-one] | 74 to 76 | Ki [2]: 0.35 nM; EC50 [3]: 1300 nM; CC50 [4]: 67000 nM
CCCN(C1=C(O)CC(CCc2ccccc2CO)(C(C)C)OC1=O)c1ccccc1 (stereo not drawn) [Example 9, 4-Hydroxy-6-[2-(2-hydroxymethyl-phenyl)-ethyl]-6-isopropyl-3-(phenyl-propyl-amino)-5,6-dihydro-pyran-2-one] | 58 to 60 | Ki [2]: 2 nM; EC50 [3]: 1400 nM; CC50 [4]: 101000 nM
CCCCN(C1=C(O)CC(CCc2ccc(O)cc2)(C(C)C)OC1=O)c1ccccc1 (stereo not drawn) [Example 13, 3-(Butyl-phenyl-amino)-4-hydroxy-6-[2-(4-hydroxy-phenyl)-ethyl]-6-isopropyl-5,6-dihydro-pyran-2-one] | 196 to 198 | Ki [2]: 0.2 nM; EC50 [3]: 1500 nM; CC50 [4]: 156000 nM
CC(C)C1(CCc2ccc(O)cc2)CC(O)=C(N(CCC#N)c2ccccc2)C(=O)O1 (stereo not drawn) [Example 21, 3-({4-Hydroxy-6-[2-(4-hydroxy-phenyl)-ethyl]-6-isopropyl-2-oxo-5,6-dihydro-2H-pyran-3-yl}-phenyl-amino)-propionitrile] | 119 to 121 | Ki [2]: 1.6 nM; EC50 [3]: 2700 nM; CC50 [4]: 320000 nM
CCCN(C1=C(O)CC(CCc2ccccc2)(C(C)C)OC1=O)c1ccccc1 (stereo not drawn) [drawing 7] | – | IC50 ([1]; pH (4.7)): 4 nM; IC50 ([1]; pH (6.2)): 4 nM
